Source: patent publication US20120245155A1, “FUSED HETEROCYCLIC COMPOUND HAVING AMINO GROUP” (Shionogi & Co., Ltd., priority 2009, published 2012)

Columns and labels:
Recombinant human BACE1 = biological target: T1, Recombinant human BACE1 (Homo sapiens, UniProt P56817); assay: Assay of BACE 1 inhibiting activity; type: biochemical; conditions: Recombinant human BACE1 7.4 nmol/L, substrate peptide 18 nmol/L, pH 5.0, 30° C., 3 hours; read-out: 50% inhibitory concentration against the enzymatic activity (IC50)
T1 construct: purchased R&D Systems
Procedure: 48.5 μL of substrate peptide solution (Biotin-XSEVNLDAEFRHDSGC-Eu: X═ε-amino-n-capronic acid, Eu=Europium cryptate) was added to each well of 96-hole half-area plate (a black plate: Costar), and after addition of 0.5 μl of the test compound (dissolved in […]) and 1 μl of Recombinant human BACE1 (R&D Systems), the reaction mixture was incubated at 30° C. for 3 hours. The substrate peptide was synthesized by reacting Cryptate TBPCOOH mono SMP (CIS bio international) with Biotin-XSEVNLDAEFRHDSGC (Peptide Institute, Inc.). The final concentrations of the substrate peptide and Recombinant human BACE1 were adjusted to 18 nmol/L and 7.4 nmol/L, respectively, and the reaction was performed in sodium acetate buffer (50 mmol/L sodium acetate, pH 5.0, 0.008% Triton X-100).
After the incubation for reaction, 50 μl of 8.0 μg/ml Streptavidin-XL665 (CIS bio international) dissolved in phosphate buffer (150 mmol/L K2 HPO4—KH2PO4, pH 7.0, 0.008% Triton X-100, 0.8 mol/L KF) was added to each well and left stand at 30° C. for an hour. After then, fluorescence intensity was measured (excitation wavelength: 320 nm, measuring wavelength: 620 nm and 665 nm) using Wallac 1420 multilabel counter (Perkin Elmer life sciences). Enzymatic activity was determined from counting ratio of each wavelength (10,000× Count 665/Count 620) and 50% inhibitory concentration against the enzymatic activity was calculated.

[1] = system: Neuroblastoma SH—SY5Y cells (SH/APPwt) with human wild-type β-APP excessively expressed; assay: Measurement of β-amyloid (Aβ) production inhibitory effect in cell; type: cell-based; conditions: 24 hours incubation, Amyloid β 1-40 by HTRF, read-out: amount needed to inhibit Aβ production by 50% (IC50)
Procedure: Neuroblastoma SH—SY5Y cells (SH/APPwt) with human wild-type p-APP excessively expressed therein were prepared at 8×10^5 cells/mL, and 150 μl portions thereof were inoculated into each well of a 96-well culture plate (Falcon). The cells were cultured for 2 hours at 37° C. in a 5% gaseous carbon dioxide incubator. Then, a solution which had been preliminarily prepared by adding and suspending the test compound (DMSO (dimethyl sulfoxide) solution) so as to be 2 μl/50 μl medium was added to the cell sap. Namely, the final DMSO concentration was 1%, and the amount of the cell culture was 200 μl. After the incubation was performed for 24 hours from the addition of the test compound, 100 μl of the culture supernatant was collected from each fraction. The amount of the Aβ in each fraction was measured.
The Aβ amount was measured as follows. 10 μl of a homogeneous time resolved fluorescence (HTRF) measurement reagent (Amyloid β 1-40 peptide; IBA Molecular Holding, S. A.) and 10 μl of the culture supernatant were put into a 384-well half area microplate (black microplate, Costar) and mixed with each other, and then left standing overnight at 4° C. while the light was shielded. Then, the fluorescence intensity (excitation wavelength: 337 nm, measurement wavelength: 620 nm and 665 nm) was measured with a Wallac 1420 multilabel counter (Perkin Elmer life sciences). The Aβ amount was determined from the count rate at each measurement wavelength (10000× Count 665/Count 620), and the amount needed to inhibit Aβ production by 50% (IC50) was calculated from at least six different dosages.

CYP3A4 [2] = biological target: T2, CYP3A4 (Homo sapiens, UniProt P08684); assay: CYP inhibition test (terfenadine hydroxylation); type: in vitro ADME; set-up: enzyme, pooled human hepatic microsome 0.2 mg protein/mL; from tissue; host or cells: pooled human hepatic microsome; conditions: pooled human hepatic microsome, test drug concentration 1, 5, 10, 20 μmol/L
Procedure: (§1) Using commercially available pooled human hepatic microsome, and employing, as markers, 7-ethoxyresorufin O-deethylation (CYP1A2), tolbutamide methyl-hydroxylation (CYP2C9), mephenyloin 4′-hydroxylation (CYP2C19), dextromethorphan O-demethylation (CYP2D6), and terfenadine hydroxylation (CYP3A4) as typical substrate metabolism reactions of human main five CYP enzyme forms (CYP1A2, 2C9, 2C19, 2D6, 3A4), an inhibitory degree of each metabolite production amount by a test compound was assessed. […] After the centrifugation at 3000 rpm for 15 minutes, resorufin (CYP1A2 metabolite) in the supernatant was quantified by a fluorescent multilabel counter and tolbutamide hydroxide (CYP2C9 metabolite), mephenyloin 4′ hydroxide (CYP2C19 metabolite), dextrorphan (CYP2D6 metabolite), and terfenadine alcohol (CYP3A4 metabolite) were quantified by LC/MS/MS. Addition of only DMSO being a solvent dissolving a drug to a reaction system was adopted as a control (100%), remaining activity (%) was calculated at each concentration of a test drug added as the solution and IC50 was calculated by reverse presumption by a logistic model using a concentration and an inhibition rate.

CYP1A2 = biological target: T3, CYP1A2 (Homo sapiens, UniProt P05177); assay: CYP inhibition test (7-ethoxyresorufin O-deethylation); type: in vitro ADME; conditions: pooled human hepatic microsome, test drug concentration 1, 5, 10, 20 μmol/L
T3 construct: enzyme, pooled human hepatic microsome 0.2 mg protein/mL; from tissue; host or cells: pooled human hepatic microsome
T3 sequence (P05177 1-516): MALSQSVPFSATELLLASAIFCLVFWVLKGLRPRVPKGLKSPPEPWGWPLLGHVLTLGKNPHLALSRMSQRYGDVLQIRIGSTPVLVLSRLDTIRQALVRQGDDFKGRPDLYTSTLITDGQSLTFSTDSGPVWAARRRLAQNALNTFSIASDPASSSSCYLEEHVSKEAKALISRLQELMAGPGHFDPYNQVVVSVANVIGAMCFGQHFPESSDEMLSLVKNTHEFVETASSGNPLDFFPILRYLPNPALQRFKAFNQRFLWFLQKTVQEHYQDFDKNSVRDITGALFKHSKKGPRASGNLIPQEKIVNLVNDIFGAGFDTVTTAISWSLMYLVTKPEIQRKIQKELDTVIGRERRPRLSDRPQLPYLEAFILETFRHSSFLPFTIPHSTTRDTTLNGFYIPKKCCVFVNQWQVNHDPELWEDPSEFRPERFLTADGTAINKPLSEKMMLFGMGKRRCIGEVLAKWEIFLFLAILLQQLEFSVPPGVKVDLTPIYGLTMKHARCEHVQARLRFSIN
Procedure: as §1

CYP2C9 = biological target: T4, CYP2C9 (Homo sapiens, UniProt P11712); assay: CYP inhibition test (tolbutamide methyl-hydroxylation); type: in vitro ADME; conditions: pooled human hepatic microsome, test drug concentration 1, 5, 10, 20 μmol/L
T4 construct: enzyme, pooled human hepatic microsome 0.2 mg protein/mL; from tissue; host or cells: pooled human hepatic microsome
Procedure: as §1

CYP2D6 = biological target: T5, CYP2D6 (Homo sapiens, UniProt P10635); assay: CYP inhibition test (dextromethorphan O-demethylation); type: in vitro ADME; conditions: pooled human hepatic microsome, test drug concentration 1, 5, 10, 20 μmol/L
T5 construct: enzyme, pooled human hepatic microsome 0.2 mg protein/mL; from tissue; host or cells: pooled human hepatic microsome
Procedure: as §1

CYP2C19 = biological target: T6, CYP2C19 (Homo sapiens, UniProt P33261); assay: CYP inhibition test (mephenytoin 4'-hydroxylation); type: in vitro ADME; conditions: pooled human hepatic microsome, test drug concentration 1, 5, 10, 20 μmol/L
T6 construct: enzyme, pooled human hepatic microsome 0.2 mg protein/mL; from tissue; host or cells: pooled human hepatic microsome
Procedure: as §1

[3] = Metabolism stability test; type: in vitro ADME; conditions: human liver microsomes 0.5 mg protein/mL, 1 mmol/L NADPH, 37° C., 30 minutes; 0 minute = 100%
Procedure: Using commercially available pooled human hepatic microsomes, a test compound is reacted for a constant time, a remaining rate is calculated by comparing a reacted sample and an unreacted sample, thereby, a degree of metabolism in liver is assessed.
A reaction is performed (oxidative reaction) at 37° C. for 0 minute or 30 minutes in the presence of 1 mmol/L NADPH in 0.2 mL of a buffer (50 mmol/L Tris-HCl pH 7.4, 150 mmol/L potassium chloride, 10 mmol/L magnesium chloride) containing 0.5 mg protein/mL of human liver microsomes. After the reaction, 50 μL of the reaction solution is added to 100 μL of a methanol/acetonitrile=1/1 (v/v), mixed and centrifuged at 3000 rpm for 15 minutes. The test compound in the supernatant is quantified by LC/MS/MS, and a remaining amount of the test compound after the reaction is calculated, letting a compound amount at 0 minute reaction time to be 100%.

CYP3A4 [4] = biological target: T2, CYP3A4; assay: CYP3A4 fluorescent MBI test; type: in vitro ADME; set-up: host or cells: Escherichia coli; conditions: CYP3A4 expressed in Escherichia coli, substrate 7-BFC, pre-reaction 0 or 30 minutes
Procedure: The CYP3A4 fluorescent MBI test is a test of investigating enhancement of CYP3A4 inhibition of a compound by a metabolism reaction, and the test was performed using, as CYP3A4 enzyme expressed in Escherichia coli and employing, as an index, a reaction in which 7-benzyloxytrifluoromethylchmarin (7-BFC) is debenzylated by the CYP3A4 enzyme to produce a metabolite, 7-hydroxytrifluoromethylchmarin (HFC) emitting fluorescent light.
The reaction conditions were as follows: substrate, 5.6 μmol/L 7-BFC; pre-reaction time, 0 or 30 minutes; reaction time, 15 minutes; reaction temperature, 25° C. […]
An enzyme in a K-Pi buffer (pH 7.4) and a test drug solution as a pre-reaction solution were added to a 96-well plate at the composition of the pre-reaction, a part of it was transferred to another 96-well plate so that it was 1/10 diluted by a substrate in a K-Pi buffer, NADPH as a co-factor was added to initiate a reaction as an index (without preincubation) and, after a predetermined time of a reaction, acetonitrile/0.5 mol/L Tris(trishydroxyaminomethane)=4/1 was added to stop the reaction. […] For the plate on which each index reaction had been performed, a fluorescent value of 7-HFC which is a metabolite was measured with a fluorescent plate reader. […]

T1 sequence (P56817 46-501): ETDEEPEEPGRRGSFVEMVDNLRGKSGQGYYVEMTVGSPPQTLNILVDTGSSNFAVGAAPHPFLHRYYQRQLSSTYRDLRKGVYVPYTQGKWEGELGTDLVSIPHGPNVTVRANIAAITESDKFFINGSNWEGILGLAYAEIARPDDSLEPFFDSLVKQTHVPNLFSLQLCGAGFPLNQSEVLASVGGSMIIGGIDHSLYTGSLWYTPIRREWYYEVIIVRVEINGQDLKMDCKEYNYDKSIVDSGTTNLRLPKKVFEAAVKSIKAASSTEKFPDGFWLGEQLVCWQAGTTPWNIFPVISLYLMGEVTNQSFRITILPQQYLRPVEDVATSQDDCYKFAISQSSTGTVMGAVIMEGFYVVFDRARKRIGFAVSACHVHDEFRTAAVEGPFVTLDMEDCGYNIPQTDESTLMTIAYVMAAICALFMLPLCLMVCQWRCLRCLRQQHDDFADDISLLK
T2 sequence (P08684 whole entry): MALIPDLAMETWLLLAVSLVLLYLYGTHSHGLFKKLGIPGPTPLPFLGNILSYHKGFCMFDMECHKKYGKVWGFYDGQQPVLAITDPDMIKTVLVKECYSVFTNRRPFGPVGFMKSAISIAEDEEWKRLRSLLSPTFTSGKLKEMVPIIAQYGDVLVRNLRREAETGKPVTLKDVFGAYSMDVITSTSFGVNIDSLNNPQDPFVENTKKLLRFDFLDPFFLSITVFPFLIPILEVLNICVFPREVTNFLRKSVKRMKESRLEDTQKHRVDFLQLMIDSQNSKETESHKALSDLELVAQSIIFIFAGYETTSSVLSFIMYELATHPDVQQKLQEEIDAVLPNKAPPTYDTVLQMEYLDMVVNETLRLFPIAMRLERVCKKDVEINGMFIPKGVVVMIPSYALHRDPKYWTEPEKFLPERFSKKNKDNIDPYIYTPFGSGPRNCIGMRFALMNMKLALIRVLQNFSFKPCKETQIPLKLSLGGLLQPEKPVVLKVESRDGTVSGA
T6 sequence (P33261 whole entry): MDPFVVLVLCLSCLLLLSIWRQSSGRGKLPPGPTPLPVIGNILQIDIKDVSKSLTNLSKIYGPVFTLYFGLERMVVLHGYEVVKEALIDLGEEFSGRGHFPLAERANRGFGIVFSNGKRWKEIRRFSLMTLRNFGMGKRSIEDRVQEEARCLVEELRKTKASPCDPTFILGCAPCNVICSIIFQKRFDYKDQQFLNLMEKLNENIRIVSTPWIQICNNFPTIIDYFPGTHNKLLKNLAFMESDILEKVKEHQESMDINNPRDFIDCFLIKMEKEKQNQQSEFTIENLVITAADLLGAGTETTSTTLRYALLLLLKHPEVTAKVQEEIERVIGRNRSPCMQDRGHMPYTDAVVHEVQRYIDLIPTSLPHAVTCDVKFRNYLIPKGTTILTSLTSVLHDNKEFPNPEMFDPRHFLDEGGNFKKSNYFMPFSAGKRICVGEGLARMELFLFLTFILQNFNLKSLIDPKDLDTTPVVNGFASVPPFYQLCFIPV
T5 sequence (P10635 whole entry): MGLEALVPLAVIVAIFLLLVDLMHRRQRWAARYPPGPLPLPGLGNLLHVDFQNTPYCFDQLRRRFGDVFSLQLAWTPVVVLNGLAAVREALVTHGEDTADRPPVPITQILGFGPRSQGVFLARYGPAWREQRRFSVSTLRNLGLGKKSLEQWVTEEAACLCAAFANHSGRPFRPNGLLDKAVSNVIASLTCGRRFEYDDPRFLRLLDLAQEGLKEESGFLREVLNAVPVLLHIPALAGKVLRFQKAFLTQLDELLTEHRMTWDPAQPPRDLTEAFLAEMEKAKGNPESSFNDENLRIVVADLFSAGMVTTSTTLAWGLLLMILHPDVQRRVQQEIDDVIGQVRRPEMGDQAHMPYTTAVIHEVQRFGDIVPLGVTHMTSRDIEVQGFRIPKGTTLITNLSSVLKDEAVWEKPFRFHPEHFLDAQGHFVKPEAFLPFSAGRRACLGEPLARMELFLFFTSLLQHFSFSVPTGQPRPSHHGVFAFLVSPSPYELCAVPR
T4 sequence (P11712 whole entry): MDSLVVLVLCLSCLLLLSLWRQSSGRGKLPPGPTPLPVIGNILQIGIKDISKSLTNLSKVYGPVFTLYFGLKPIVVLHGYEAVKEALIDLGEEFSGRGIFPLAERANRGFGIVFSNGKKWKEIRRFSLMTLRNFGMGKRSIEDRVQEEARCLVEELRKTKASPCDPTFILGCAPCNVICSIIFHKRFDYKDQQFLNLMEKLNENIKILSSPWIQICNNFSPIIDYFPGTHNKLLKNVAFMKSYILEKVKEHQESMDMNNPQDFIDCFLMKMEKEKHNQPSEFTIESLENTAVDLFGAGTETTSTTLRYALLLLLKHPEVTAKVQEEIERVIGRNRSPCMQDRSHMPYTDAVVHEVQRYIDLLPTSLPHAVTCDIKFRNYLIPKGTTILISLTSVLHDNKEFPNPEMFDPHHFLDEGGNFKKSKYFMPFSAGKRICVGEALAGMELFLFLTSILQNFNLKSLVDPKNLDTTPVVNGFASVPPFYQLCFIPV

Row | Compound | IC50 (Recombinant human BACE1) | IC50 [1] | also measured
1 | C=C1SC(N)=NC2(c3cc(NC(=O)c4ccc(C#N)cn4)ccc3F)COCC12 (racemic) [Compound I-3] | 29 nM | ≤ 1000 nM | –
2 | N#Cc1ccc(C(=O)Nc2ccc(F)c(C34COCC3COC(N)=N4)c2)nc1 (racemic) [Compound I-33] | ≤ 1000 nM | ≤ 1000 nM | IC50 (CYP3A4 [2]): > 20000 nM; IC50 (CYP1A2): > 20000 nM; IC50 (CYP2C9): > 20000 nM; IC50 (CYP2D6): > 20000 nM; IC50 (CYP2C19): > 20000 nM
3 | Cc1cnc(C(=O)Nc2ccc(F)c(C34COCC3COC(N)=N4)c2)cn1 (racemic) [Compound I-34] | – | ≤ 1000 nM | –
4 | COc1cnc(C(=O)Nc2ccc(F)c(C34COCC3COC(N)=N4)c2)cn1 (racemic) [Compound I-35] | ≤ 1000 nM | ≤ 1000 nM | –
5 | NC1=NC2(c3cc(NC(=O)c4ccc(Cl)cn4)ccc3F)COCC2CO1 (racemic) [Compound I-36] | ≤ 1000 nM | ≤ 1000 nM | –
6 | CC#CCOc1cnc(C(=O)Nc2ccc(F)c(C34COCC3COC(N)=N4)c2)cn1 (racemic) [Compound I-37] | – | 1 nM | –
7 | N#Cc1ccc(C(=O)Nc2ccc(F)c(C34CCCC3COC(N)=N4)c2)nc1 (racemic) [Compound I-38] | ≤ 1000 nM | ≤ 1000 nM | –
8 | NC1=NC2(c3cc(-c4cccnc4F)ccc3F)CCCC2CO1 (racemic) [Compound I-40] | – | ≤ 1000 nM | –
9 | COc1cncc(-c2ccc(F)c(C34CCCC3COC(N)=N4)c2)c1 (racemic) [Compound I-41] | – | ≤ 1000 nM | –
10 | NC1=NC2(c3cc(-c4cccnc4F)ccc3F)COCC2CO1 (racemic) [Compound I-42] | – | ≤ 1000 nM | remaining amount of the test compound after the reaction [3]: 94.7%
11 | CNC(=O)c1ccc(-c2ccc(F)c(C34COCC3COC(N)=N4)c2)cn1 (racemic) [Compound I-43] | – | ≤ 1000 nM | –
12 | COc1cncc(-c2ccc(F)c(C34COCC3COC(N)=N4)c2)c1 (racemic) [Compound I-44] | – | ≤ 1000 nM | CYP3A4 MBI: difference of IC50 value with and without preincubation (CYP3A4 [4]): (−) (When the difference was 3 μM or less, the result was defined as (−))
13 | NC1=NC2(c3cc(-c4cncc(Cl)c4)ccc3F)COCC2CO1 (racemic) [Compound I-45] | – | ≤ 1000 nM | –
14 | NC1=NC2(c3cc(NC(=O)c4ccc(OC(F)F)cn4)ccc3F)CCCC2CO1 (centres unmarked) [Compound I-46] | – | ≤ 1000 nM | –
